How the values were obtained:
[1] = system: LhgR binding to the lhgO promoter (F1); experiment: Electrophoretic mobility shift assays (EMSAs) to analyze the effectors of LhgR; parameters: species or system Pseudomonas putida W619; settings: 50 mM compound, 60 nM purified LhgR, 10 nM F1 fragment, 30° C.
Source text: The above transcriptional regulator that specifically responds to L-2-hydroxyglutarate (L-2-HG) was obtained in the following way: • (1) analysis of the distribution of lhgO, the gene encoding a key enzyme for L-2-HG catabolism, in the genomes of different strains. A gene encoding a GntR family transcriptional regulator, lhgR, was found directly upstream of lhgO in the genome of Pseudomonas putida W619. lhgR gene was synthesized and cloned into pETDuet-1 vector, and the recombinant plasmid pETDuet-lhgR was introduced into an expression strain Escherichia coli BL21 (DE3), and then LhgR protein was obtained by induction of expression, isolation, and purification; • (2) electrophoretic mobility shift assays were performed to verify and determine the function of the above transcriptional regulator LhgR in Pseudomonas putida W619. Purified LhgR was incubated with different compounds (L-lysine, 5-aminovalerate, glutarate, D-2-HG, 2-ketoglutarate, and succinate), respectively, then the promoter fragment of lhgO was added. The effect on the binding ability of LhgR to the lhgO promoter fragment in the presence of different compounds was analyzed by electrophoretic separation, staining, and imaging.
Using the recombinant plasmid pETDuet-F2-lhgR-F1-lhgO as a template, the promoter region of lhgO (F1) was amplified by PCR using the synthetic primers. The F1 fragment and purified LhgR protein were diluted to 100 nM and 2000 nM using EMSA binding buffer, respectively. 18 μL of EMSA binding buffer containing 60 nM purified LhgR protein and 50 mM of different compounds was incubated for 15 min at 30° C., then 2 μL of F1 fragment at a final concentration of 10 nM was added and incubated for another 30 min at 30° C. 10 μL of the reaction mixture was electrophoresed on a 6% native polyacrylamide gels at 4° C. and 170 volts for approximately 45 minutes, followed by staining with SYBR green I and photographing.
The EMSA binding buffer formulation described in step (2) above was: 10 mM Tris-HCl, 50 mM KCl, 0.5 mM EDTA, 10% glycerol, and 1 mM dithiothreitol, adjusted to pH 7.4. The electrophoresis buffer formulation was: 89 mM Tris, 89 mM boric acid, 2 mM EDTA, adjusted to pH 8.3.

E. coli BL21(DE3) = experiment: Real-time detection of intracellular L-2-HG concentration in bacteria; format: cell-based, Escherichia coli; settings: carbon starvation-treated E. coli BL21(DE3) expressing the biosensor, L-2-HG added, 37° C., 5 min interval
Protocol: The above application was performed by introducing the L-2-HG biosensor-encoding plasmid pETDuet-LHGFR0N3C into an expression strain E. coli BL21 (DE3), shaking the culture and then adding IPTG overnight to induce LHGFR0N3C expression, carbon starvation treatment in inorganic salt medium without carbon source for 8 h to remove intracellular L-2-HG, mixing 90 μL of carbon starvation-treated bacterial solution with 10 μL of gradient concentration of L-2-HG solution, the fluorescence emission intensity of mTFP and Venus and its ratio were measured continuously at 5-minute intervals by a fluorescence microplate reader, and the fluorescence emission ratio increased in response to the addition of L-2-HG, and there was a positive correlation between the change level of fluorescence emission ratio and the concentration of L-2-HG, which can be used as an indicator to achieve real-time detection of dynamic changes in intracellular L-2-HG concentration of bacteria.
The E. coli BL21(DE3)-pETDuet-LHGFR0N3C strain constructed in Example 3 was inoculated in 50 mL of LB medium containing ampicillin resistance and incubated at 37° C. with 180 rpm to an OD600 nm of approximately 0.6. Then, 1 mM IPTG was added, and LHGFR0N3C expression was induced at 16° C. with 160 rpm overnight. […] The fluorescence intensity was detected continuously by using an EnSight microplate reader (PerkinElmer, USA). […]

HEK293FT cells = experiment: Detection of intracellular L-2-HG concentration in human cells; format: cell-based; settings: HEK293FT cells expressing the biosensor, permeabilized with 10 μM digitonin, L-2-HG added
Protocol: The above application was performed by optimizing and synthesizing the nucleotide sequences of LHGFR0N3C and LHGFR0N7C with mammalian codons, adding the kozark sequence, 5′-GCCACC-3′, before the start codon, and ligating it to the pcDNA3.1^(+) plasmid, then the obtained recombinant plasmids pcDNA3.1-LHGFR0N3C and pcDNA3.1-LHGFR0N7C were transfected into HEK293FT cells, respectively. Cells were trypsinized 48 h following transfection, and resuspended in 1× Hank's balanced salt solution supplemented with 20 mM HEPES. Digitonin at a concentration of 10 μM was used to induce cell permeabilization and deplete intracellular L-2-HG for in vivo response curves construction.
The nucleotide sequences of LHGFR0N3C and LHGFR0N7C were optimized for mammalian codons and synthesized by General Biosystem Co., Ltd (Anhui). […] In a black flat-bottomed 96-well plate, 90 μL of the treated cell suspension was mixed with 10 μL of gradient concentration of L-2-HG and the fluorescence intensity was read in a SpectraMax i3 fluorescence plate reader (Molecular Devices, USA). […] The fluorescence intensity of HEK293FT cells not expressing the L-2-HG biosensor was subtracted at each emission wavelength and the dose-response curve in human cells was plotted as the ratio of the corrected fluorescence intensity at 528 nm to the fluorescence intensity at 485 nm.

O=C(O)CCC(=O)C(=O)O [2-ketoglutarate]
effect on the binding of LhgR to the lhgO promoter fragment (EMSA) [1]: could not interfere with the binding of LhgR to DNA fragments

NCCCCC(=O)O [5-aminovalerate]
effect on the binding of LhgR to the lhgO promoter fragment (EMSA) [1]: could not interfere with the binding of LhgR to DNA fragments

O=C(O)CC[C@@H](O)C(=O)O [D-2-HG]
effect on the binding of LhgR to the lhgO promoter fragment (EMSA) [1]: could not interfere with the binding of LhgR to DNA fragments

O=C(O)CC[C@H](O)C(=O)O [L-2-HG, L-2-Hydroxyglutarate]
effect on the binding of LhgR to the lhgO promoter fragment (EMSA) [1]: inhibited the binding of LhgR to the lhgO promoter fragment

NCCCC[C@H](N)C(=O)O [L-lysine]
effect on the binding of LhgR to the lhgO promoter fragment (EMSA) [1]: could not interfere with the binding of LhgR to DNA fragments

O=C(O)CCC(=O)O [succinate]
effect on the binding of LhgR to the lhgO promoter fragment (EMSA) [1]: could not interfere with the binding of LhgR to DNA fragments

LHGFR0N3C: L-2-HG biosensor: mTFP-LhgR-Venus fusion with C-terminal truncation of three amino acids of LhgR; SEQ ID NO. 3
detection of intracellular L-2-HG dynamics (fluorescence emission ratio) (E. coli BL21(DE3)): able to detect dynamic changes in intracellular L-2-HG concentration of bacteria in real time
detection of intracellular L-2-HG (fluorescence emission ratio) (HEK293FT cells): able to detect intracellular L-2-HG concentration in human cells

LHGFR0N7C: L-2-HG biosensor: mTFP-LhgR-Venus fusion with C-terminal truncation of seven amino acids of LhgR; SEQ ID NO. 4
detection of intracellular L-2-HG (fluorescence emission ratio) (HEK293FT cells): able to detect intracellular L-2-HG concentration in human cells
